Values of other authors as cited in publication PMC8177746 (ACS applied materials & interfaces, 2020).

Tested on: Staphylococcus aureus
Conditions: ref 14 (Lai et al.)

ILGPVLGLVSDTLDDVLGIL-NH2 [MH5]
MIC: 80 µM
